Assay results as given in US20240262844A1, “PYRIDINIUM SALTS AND METHODS OF USE” (UNIVERSITY OF WYOMING, priority 2023, published 2024).
Several values for one entry are separate records, joined by “and”; a condition that tells them apart may be missing. Identical values can stand only once. Counter-ions that a name gives are not always drawn.

What was measured:
thioredoxin (11.6 kDa) = biological target: T1, thioredoxin (11.6 kDa) (Escherichia coli, UniProt P0AA25); experiment: Photochemical labeling of thioredoxin (LC/MS, MS-MS); type: biochemical
T1 construct: purchased Sigma Aldrich; host or cells: E. coli
T1 sequence (P0AA25 whole entry): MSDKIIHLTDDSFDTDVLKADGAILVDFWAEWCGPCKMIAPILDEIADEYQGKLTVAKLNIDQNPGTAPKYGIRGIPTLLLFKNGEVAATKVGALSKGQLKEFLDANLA
Method: (§1) General Procedure B: Photochemical Irradiation of Peptides and Proteins: To a 2 mL Pyrex LC/MS vial (Thermo model #03-391-39) were sequentially added solutions containing the desired biomolecule, glutathione (GSH), pyridinium salt, and ammonium acetate (NH4OAc). The resulting solution was diluted to a final volume of 500 μL and then sparged using nitrogen for a minimum of 30 minutes prior to irradiation. The actively sparging solution was then placed in an EvoluChem™ PhotoRedOx Box photoreactor that was equipped with a Kessil, PR160 427 nm LED Lamp and was then irradiated (100% lamp intensity) for the designated time at room temperature while maintaining active sparging. The resultant reaction mixture was then analyzed directly by LC/MS. Analysis of labeling outcomes using LC/MS was performed either by extracted ion chromatogram intensities (method A) or by integrating the area under the peaks associated with peptide content (method B). These values were totaled, and estimated percentages were assigned according to relative intensities of peaks or ion counts.
Labeling of Thioredoxin with Pyridinium Salt 2a (Thioredoxin-2a Conjugate). […] The reaction mixture was directly analyzed by LC/MS using method A and was estimated to have proceeded with 93% conversion and a 14.5:1 mono:di labeled ratio and 3% glutathionylation of all protein content. […]

[1] = tested on: Octreotide acetate (1 kDa); experiment: Photochemical labeling of octreotide (LC/MS); type: biochemical; conditions: 10 μM octreotide acetate, 100 μM pyridinium salt, 30 minutes
Method: as §1
Labeling of Octreotide with Pyridinium Salt 2a (Octreotide-2a Conjugate). […] The resulting reaction mixture was directly analyzed by LC/MS using method A to have proceeded with 88% conversion with mono labeling. […]

## COC(=O)N(C)[n+]1c(C)cc(-c2ccc3cc(OC)ccc3c2)cc1C [Pyridinium salt 2a, 1-((methoxycarbonyl)(methyl)amino)-4-(6-methoxynapthalen-2-yl)-2,6-dimethylpyridin-1-ium tetrafluoroborate]
Thioredoxin (11.6 kDa); 10 μM thioredoxin, 200 μM pyridinium salt, 300 μM glutathione, 20 mM NH4OAc pH 6.9, 427 nm, 60 minutes
  conversion: 93% and 87%
Thioredoxin (11.6 kDa); digestion/MS-MS
  site of tryptophan modification: Trp-31
[1]; 20 mM NH4OAc pH 6.9, glutathione, 427 nm LED
  conversion: 88% and 93%
[1]; 427 nm
  degree of labeling: mono labeling
